Data: PubChem BioAssay AID272 (DTP/NCI, 2004)
Records with an inconclusive call do not appear.

System: Lewis lung carcinoma i.m., BDF1 mice, T/C %
Assay: NCI In Vivo Anticancer Drug Screen. Data for tumor model Lewis Lung Carcinoma (intramuscular) in B6D2F1 (BDF1) mice
Conditions: schedule: Q01DX011 (ip)
In short: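 Value is the ratio of a treated-group measurement (T) to the matching vehicle-control measurement (C), using either survival or tumour size in mice bearing transplanted tumours.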

With O=C(O)CCCC1CCCCC1.[Cu+2] the T/C (endpoint: mean tumor weight (est.), dose: 6.25 mg/kg/injection, vehicle: saline with Tween-80, higher = larger tumour) was 61 % of control.
FC(F)(F)c1nc2nc(Cl)c(Cl)nc2[nH]1 was tested, and the T/C (endpoint: median survival time, dose: 8.0 mg/kg/injection, vehicle: saline, higher = longer survival) was 107 % of control, the T/C (endpoint: median survival time, dose: 16.0 mg/kg/injection, vehicle: saline, higher = longer survival) was 112 % of control and the T/C (endpoint: median survival time, dose: 32.0 mg/kg/injection, vehicle: saline, higher = longer survival) was 116 % of control.
CCCCNC(C)(C)COC(=O)/C=C/c1ccc(OCCCC)cc1 was tested, and the T/C (endpoint: mean tumor weight (est.), dose: 12.5 mg/kg/injection, vehicle: saline with Tween-80, higher = larger tumour) was 89 % of control, the T/C (endpoint: mean tumor weight (est.), dose: 25.0 mg/kg/injection, vehicle: saline with Tween-80, higher = larger tumour) was 82 % of control and the T/C (endpoint: mean tumor weight (est.), dose: 50.0 mg/kg/injection, vehicle: saline with Tween-80, higher = larger tumour) was 67 % of control. The T/C (endpoint: mean tumor weight (est.), dose: 100.0 mg/kg/injection, vehicle: saline with Tween-80, higher = larger tumour) was 59 % of control, the T/C (endpoint: median survival time, dose: 12.5 mg/kg/injection, vehicle: saline with Tween-80, higher = longer survival) was 88 % of control and the T/C (endpoint: median survival time, dose: 25.0 mg/kg/injection, vehicle: saline with Tween-80, higher = longer survival) was 110 % of control. The T/C (endpoint: median survival time, dose: 50.0 mg/kg/injection, vehicle: saline with Tween-80, higher = longer survival) was 104 % of control and the T/C (endpoint: median survival time, dose: 100.0 mg/kg/injection, vehicle: saline with Tween-80, higher = longer survival) was 98 % of control.
In the case of Nc1nc(=S)c2ncn(C3CC(O)C(CO)O3)c2[nH]1 (stereo unspecified), the T/C (endpoint: mean tumor weight, dose: 3.12 mg/kg/injection, vehicle: other, higher = larger tumour) is reported as 120 % of control, the T/C (endpoint: mean tumor weight, dose: 6.25 mg/kg/injection, vehicle: other, higher = larger tumour) is reported as 112 % of control and the T/C (endpoint: mean tumor weight, dose: 12.5 mg/kg/injection, vehicle: other, higher = larger tumour) is reported as 120 % of control. For the same molecule, the T/C (endpoint: mean tumor weight, dose: 25.0 mg/kg/injection, vehicle: other, higher = larger tumour) was 69 % of control, the T/C (endpoint: median survival time, dose: 1.56 mg/kg/injection, vehicle: other, higher = longer survival) was 112 % of control and the T/C (endpoint: median survival time, dose: 3.12 mg/kg/injection, vehicle: other, higher = longer survival) was 95 % of control. The T/C (endpoint: median survival time, dose: 6.25 mg/kg/injection, vehicle: other, higher = longer survival) was 102 % of control, the T/C (endpoint: median survival time, dose: 12.5 mg/kg/injection, vehicle: other, higher = longer survival) was 112 % of control and the T/C (endpoint: median survival time, dose: 25.0 mg/kg/injection, vehicle: other, higher = longer survival) was 112 % of control.
